Active and inactive are the calls of the source. The calls are words filed in the database; no cut-off is given here.
Biological target: T1, P2Y purinoceptor 14 (Homo sapiens) (UniProt Q15391)
T1 sequence (whole entry): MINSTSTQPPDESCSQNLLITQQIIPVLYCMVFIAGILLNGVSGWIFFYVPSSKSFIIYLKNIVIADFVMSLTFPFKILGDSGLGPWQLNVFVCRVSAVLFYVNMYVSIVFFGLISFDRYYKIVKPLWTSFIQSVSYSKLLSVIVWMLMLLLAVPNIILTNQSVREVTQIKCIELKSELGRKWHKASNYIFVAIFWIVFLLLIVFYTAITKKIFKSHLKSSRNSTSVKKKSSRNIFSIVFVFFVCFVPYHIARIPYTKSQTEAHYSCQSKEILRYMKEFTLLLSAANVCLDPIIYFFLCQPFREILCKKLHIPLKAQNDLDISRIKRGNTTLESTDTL
Assay: Agonist activity at recombinant human P2Y14 receptor expressed in African green monkey COS7 cells co-transfected with Galphaqi assessed as stimulation of phospholipase Cbeta at 10 uM
Format: cell-based
Conditions: COS-7

Activity | SMILES
inactive | N[C@@H]1[C@H](O)[C@@H](COP(=O)(O)OP(=O)(O)O[C@H]2O[C@H](CO)[C@@H](O)[C@H](O)[C@H]2O)O[C@H]1n1ccc(=O)[nH]c1=O
inactive | O=c1ccn([C@H]2[C@H](O)[C@H](O)[C@]3(COP(=O)(O)OP(=O)(O)O[C@H]4O[C@H](CO)[C@@H](O)[C@H](O)[C@H]4O)C[C@H]23)c(=O)[nH]1
inactive | O=c1ccn([C@]23C[C@H]2[C@H](COP(=O)(O)OP(=O)(O)O[C@H]2O[C@H](CO)[C@@H](O)[C@H](O)[C@H]2O)[C@@H](O)[C@H]3O)c(=O)[nH]1

More lines, now with the values behind:

SMILES | Activity
Nc1cn([C@@H]2O[C@H](COP(=O)(O)OP(=O)(O)O[C@H]3O[C@H](CO)[C@@H](O)[C@H](O)[C@H]3O)[C@@H](O)[C@H]2O)c(=O)[nH]c1=O | inactive
[N-]=[N+]=N[C@@H]1[C@H](O)[C@@H](COP(=O)(O)OP(=O)(O)O[C@H]2O[C@H](CO)[C@@H](O)[C@H](O)[C@H]2O)O[C@H]1n1ccc(=O)[nH]c1=O | inactive
[N-]=[N+]=Nc1cn([C@@H]2O[C@H](COP(=O)(O)OP(=O)(O)O[C@H]3O[C@H](CO)[C@@H](O)[C@H](O)[C@H]3O)[C@@H](O)[C@H]2O)c(=O)[nH]c1=O | inactive
O=c1[nH]c(=O)n([C@@H]2O[C@H](COP(=O)(O)OP(=O)(O)O[C@H]3O[C@H](CO)[C@@H](O)[C@H](O)[C@H]3O)[C@@H](O)[C@H]2O)cc1I | inactive

Biological target: T2, P2Y purinoceptor 14 (Homo sapiens, UniProt Q15391)
T2 sequence (Q15391 whole entry): T1 sequence (whole entry)
Assay: Agonist activity at recombinant human P2Y14 receptor expressed in African green monkey COS7 cells co-transfected with Galphaqi assessed as stimulation of phospholipase Cbeta
Format: cell-based, COS-7
Conditions: not given

SMILES | EC50 [nM]
O=c1ccn([C@@H]2O[C@H](COP(=O)(O)OP(=O)(O)O[C@H]3O[C@H](CO)[C@@H](O)[C@H](O)[C@H]3O)[C@@H](O)[C@H]2O)c(=S)[nH]1 | 11

— ChEMBL document CHEMBL3588816, “Molecular modeling of the human P2Y14 receptor: A template for structure-based design of selective agonist ligands” (Bioorg Med Chem, 2015)
